Assay [1] can be described thus: alpha-synuclein stem-loop luciferase translation blockers – H4 neuroglioma cells, luminescence, confirmation (AID 1988). The class given is functional, cell-based.
Assay [2] addresses T1, Zinc finger protein mex-5 (Caenorhabditis elegans, UniProt Q9XUB2).
T1 sequence (Q9XUB2 whole entry): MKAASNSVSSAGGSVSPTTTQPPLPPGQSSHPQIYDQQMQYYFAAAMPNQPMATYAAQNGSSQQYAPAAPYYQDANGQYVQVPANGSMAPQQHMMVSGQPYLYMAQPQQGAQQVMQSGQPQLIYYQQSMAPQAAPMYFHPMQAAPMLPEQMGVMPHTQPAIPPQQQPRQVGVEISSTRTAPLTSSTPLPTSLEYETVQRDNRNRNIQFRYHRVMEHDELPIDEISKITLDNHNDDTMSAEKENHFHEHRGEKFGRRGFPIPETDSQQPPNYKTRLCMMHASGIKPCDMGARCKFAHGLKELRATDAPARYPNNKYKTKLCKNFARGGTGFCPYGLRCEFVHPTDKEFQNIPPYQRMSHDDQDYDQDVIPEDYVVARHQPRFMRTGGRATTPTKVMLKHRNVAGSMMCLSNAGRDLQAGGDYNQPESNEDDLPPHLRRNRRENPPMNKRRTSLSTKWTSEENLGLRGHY
Briefly: potency of MEX-5 RNA-binding blockers – biochemical, C. elegans, fluorescence polarization, dose response (AID 1960). For orientation: Fluorescence polarisation rises when a labelled molecule tumbles more slowly, as on binding a larger partner.

Assay [3] has as its target T2, RNA-binding protein pos-1 (Caenorhabditis elegans, UniProt G5EF15).
T2 sequence (G5EF15 whole entry): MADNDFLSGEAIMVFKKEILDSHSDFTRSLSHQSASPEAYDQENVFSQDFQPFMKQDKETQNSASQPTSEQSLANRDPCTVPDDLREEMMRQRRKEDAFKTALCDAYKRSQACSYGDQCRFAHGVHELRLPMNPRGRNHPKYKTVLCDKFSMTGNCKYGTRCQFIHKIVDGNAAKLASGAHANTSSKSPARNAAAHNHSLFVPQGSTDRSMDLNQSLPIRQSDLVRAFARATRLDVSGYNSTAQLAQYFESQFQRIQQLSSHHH
In words: disruptors of C. elegans POS-1 RNA interaction – biochemical, fluorescence polarization, dose response (AID 1964).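 Note: purified POS-1 fused to maltose binding protein made in E. coli; potency of compounds blocking POS-1 binding to fluorescent RNA.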

Assay [4] in a line: luciferase reporter signal suppression in cells – H4 neuroglioma cells, luminescence, dose response (AID 1990). The class given is functional, cell-based. A general note: In a reporter assay the amount or activity of a reporter protein is the signal.
The target in assay [5] is T3, Mannose-6-phosphate isomerase (Homo sapiens, UniProt P34949).
T3 sequence (P34949 whole entry): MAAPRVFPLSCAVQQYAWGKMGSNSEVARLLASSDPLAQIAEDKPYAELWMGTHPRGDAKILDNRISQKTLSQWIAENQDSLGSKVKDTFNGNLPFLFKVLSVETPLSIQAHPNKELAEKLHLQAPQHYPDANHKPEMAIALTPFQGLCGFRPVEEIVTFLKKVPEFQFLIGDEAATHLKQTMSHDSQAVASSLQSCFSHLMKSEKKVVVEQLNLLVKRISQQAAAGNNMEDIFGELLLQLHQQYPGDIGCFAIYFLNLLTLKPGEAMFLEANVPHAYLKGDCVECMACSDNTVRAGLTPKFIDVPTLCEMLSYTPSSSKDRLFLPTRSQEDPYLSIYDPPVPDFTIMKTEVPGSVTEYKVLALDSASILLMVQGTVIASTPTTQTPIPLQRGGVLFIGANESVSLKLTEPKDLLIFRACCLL
Briefly: MPI inhibition at elevated mannose 6-phosphate – biochemical, fluorescence intensity, high mannose 6-phosphate, primary screen (AID 1220).

A further assay concerns A-375. Briefly: MITF: Counter assay: A375 proliferation Measured in Cell-Based System Using Plate Reader - 2084-03_Inhibitor_Dose_DryPowder_Activity. [Related pubchem assays (depositor defined):AID488944]. The class given is functional. The note with it: Homo sapiens.
Assay [6] is described as follows: MIN6 cell viability loss – mouse insulinoma, cytotoxicity control, dose response (AID 2122).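 Note: confirmatory high-throughput counterscreen run to flag cytotoxic compounds; mouse MIN-6 beta cells carrying an insulin promoter eGFP reporter.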 The class given is functional.
A further assay concerns the target Beta-galactosidase (Escherichia coli, UniProt Q8VNN2). The class given is functional.
Assay [7] is described as follows: non-specific 3'UTR reporter inhibition in Clone20-Shn3RL – cell-based, Renilla luciferase, cherry-picked, counter-screen for Shn3 inhibitor project, dose response (AID 624133). The class given is functional.
The next assay has as its target Beta Lactamase (Pseudomonas aeruginosa, UniProt Q932Y6). Briefly: BLA reporter interference, concentration series – BLA reporter cells, FRET fluorescence, artefact control for TLR9-MyD88 binding inhibitor project, dose response (AID 588341).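 Note: cell based assay in CHO-K1 cells stably expressing beta-lactamase.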 The class given is cell-based.
In a further assay the target is Paired box protein Pax-8 (Homo sapiens, UniProt Q06710). In words: PAX8 transcriptional activity inhibition in RMG-I – RMG-I cells, luciferase, cherry-pick, dose response (AID 687027).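 Note: luciferase reporter driven by Pax8 target thyroperoxidase promoter measured by SteadyGlo luminescence.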 The class given is functional, cell-based.
Assay [8] concerns the target Delta-type opioid receptor (Homo sapiens, UniProt P41143). In words: HTS Image-Based Screen for Agonists of the DOR Receptor. [Related pubchem assays (depositor defined):AID1777, AID1786, AID2133]. The class given is functional.
Another assay has as its target SUMO-activating enzyme (Homo sapiens, UniProt Q9UBT2). In words: blockers of UBC9-mediated SUMO conjugation – biochemical, AlphaScreen, SUMOylation inhibitor project, confirmation (AID 2018). The class given is functional.
Assay [9] deals with 1-acylglycerol-3-phosphate O-acyltransferase ABHD5/Perilipin-5 (Homo sapiens, UniProt Q00G26+Q8WTS1). Briefly: Luminescence-based biochemical high throughput dose response assay for inhibitors of the interaction of the lipase co-activator protein, abhydrolase domain containing 5 (ABHD5) with perilipin-5 (MLDP; PLIN5) (2K validation set). [Related pubchem assays (depositor defined):AID493035, AID493241].

Assay [10] has as its target Sphingosine 1-phosphate receptor 1 (Homo sapiens, UniProt P21453). The class given is functional.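 Note: Tango beta-arrestin reporter U2OS cells stimulated with S1P near its EC80; inhibitor potency meaning antagonism of receptor activation by the natural agonist.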
For another assay, the target named is Phospholipase A2 (Homo sapiens, UniProt P04054). The class given is functional.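 Note: confirmatory dose-response counterscreen on phospholipase A2, testing hits that came from an ultra-high-throughput screen for ATG4B inhibitors.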
For assay [11], the target named is Photoreceptor-specific nuclear receptor (Homo sapiens, UniProt Q9Y5X4). The class given is functional.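 Note: potency for compounds that break the NR2E3 corepressor complex and count as activators.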
In the next assay the target is Perilipin-1/ABHD5 (Homo sapiens, UniProt O60240+Q8WTS1). In words: Luminescence-based biochemical high throughput dose response assay for inhibitors of the interaction of the lipase co-activator protein, abhydrolase domain containing 5 (ABHD5) with perilipin-1 (PLIN1) (2K validation set). [Related pubchem assays (depositor defined):AID493027, AID493057].
Assay [12] is described as follows: HIV-1 AD8 envelope cell-cell fusion blockers – cherry-pick, dose response (AID 652062).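 Note: luciferase signal from cell-cell fusion driven by HIV-1 clade B AD8 Env; potency is for inhibitors of fusion seen as a drop in luminescence.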 The class given is functional, cell-based.
Assay [13] has as its target Peroxisome proliferator-activated receptor gamma/Nuclear receptor corepressor 2 (Homo sapiens, UniProt P37231+Q9Y618). The class given is functional.

Calls of active or inactive are those of the source.

Sequence of Peroxisome proliferator-activated receptor gamma/Nuclear receptor corepressor 2 (P37231 whole entry): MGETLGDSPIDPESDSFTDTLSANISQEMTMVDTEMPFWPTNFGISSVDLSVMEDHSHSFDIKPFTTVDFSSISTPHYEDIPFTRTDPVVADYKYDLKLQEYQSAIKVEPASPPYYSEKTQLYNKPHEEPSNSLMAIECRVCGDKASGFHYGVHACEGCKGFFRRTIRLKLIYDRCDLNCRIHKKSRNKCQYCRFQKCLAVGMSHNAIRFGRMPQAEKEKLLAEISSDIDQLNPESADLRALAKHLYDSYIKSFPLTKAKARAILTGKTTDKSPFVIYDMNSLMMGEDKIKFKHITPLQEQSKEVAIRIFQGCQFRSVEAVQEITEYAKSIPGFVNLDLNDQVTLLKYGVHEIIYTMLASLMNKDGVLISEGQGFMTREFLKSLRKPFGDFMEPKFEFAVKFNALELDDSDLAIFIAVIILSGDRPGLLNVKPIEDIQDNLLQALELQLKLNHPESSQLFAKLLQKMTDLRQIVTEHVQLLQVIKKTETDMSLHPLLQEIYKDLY
Sequence of Peroxisome proliferator-activated receptor gamma/Nuclear receptor corepressor 2 (Q9Y618 whole entry): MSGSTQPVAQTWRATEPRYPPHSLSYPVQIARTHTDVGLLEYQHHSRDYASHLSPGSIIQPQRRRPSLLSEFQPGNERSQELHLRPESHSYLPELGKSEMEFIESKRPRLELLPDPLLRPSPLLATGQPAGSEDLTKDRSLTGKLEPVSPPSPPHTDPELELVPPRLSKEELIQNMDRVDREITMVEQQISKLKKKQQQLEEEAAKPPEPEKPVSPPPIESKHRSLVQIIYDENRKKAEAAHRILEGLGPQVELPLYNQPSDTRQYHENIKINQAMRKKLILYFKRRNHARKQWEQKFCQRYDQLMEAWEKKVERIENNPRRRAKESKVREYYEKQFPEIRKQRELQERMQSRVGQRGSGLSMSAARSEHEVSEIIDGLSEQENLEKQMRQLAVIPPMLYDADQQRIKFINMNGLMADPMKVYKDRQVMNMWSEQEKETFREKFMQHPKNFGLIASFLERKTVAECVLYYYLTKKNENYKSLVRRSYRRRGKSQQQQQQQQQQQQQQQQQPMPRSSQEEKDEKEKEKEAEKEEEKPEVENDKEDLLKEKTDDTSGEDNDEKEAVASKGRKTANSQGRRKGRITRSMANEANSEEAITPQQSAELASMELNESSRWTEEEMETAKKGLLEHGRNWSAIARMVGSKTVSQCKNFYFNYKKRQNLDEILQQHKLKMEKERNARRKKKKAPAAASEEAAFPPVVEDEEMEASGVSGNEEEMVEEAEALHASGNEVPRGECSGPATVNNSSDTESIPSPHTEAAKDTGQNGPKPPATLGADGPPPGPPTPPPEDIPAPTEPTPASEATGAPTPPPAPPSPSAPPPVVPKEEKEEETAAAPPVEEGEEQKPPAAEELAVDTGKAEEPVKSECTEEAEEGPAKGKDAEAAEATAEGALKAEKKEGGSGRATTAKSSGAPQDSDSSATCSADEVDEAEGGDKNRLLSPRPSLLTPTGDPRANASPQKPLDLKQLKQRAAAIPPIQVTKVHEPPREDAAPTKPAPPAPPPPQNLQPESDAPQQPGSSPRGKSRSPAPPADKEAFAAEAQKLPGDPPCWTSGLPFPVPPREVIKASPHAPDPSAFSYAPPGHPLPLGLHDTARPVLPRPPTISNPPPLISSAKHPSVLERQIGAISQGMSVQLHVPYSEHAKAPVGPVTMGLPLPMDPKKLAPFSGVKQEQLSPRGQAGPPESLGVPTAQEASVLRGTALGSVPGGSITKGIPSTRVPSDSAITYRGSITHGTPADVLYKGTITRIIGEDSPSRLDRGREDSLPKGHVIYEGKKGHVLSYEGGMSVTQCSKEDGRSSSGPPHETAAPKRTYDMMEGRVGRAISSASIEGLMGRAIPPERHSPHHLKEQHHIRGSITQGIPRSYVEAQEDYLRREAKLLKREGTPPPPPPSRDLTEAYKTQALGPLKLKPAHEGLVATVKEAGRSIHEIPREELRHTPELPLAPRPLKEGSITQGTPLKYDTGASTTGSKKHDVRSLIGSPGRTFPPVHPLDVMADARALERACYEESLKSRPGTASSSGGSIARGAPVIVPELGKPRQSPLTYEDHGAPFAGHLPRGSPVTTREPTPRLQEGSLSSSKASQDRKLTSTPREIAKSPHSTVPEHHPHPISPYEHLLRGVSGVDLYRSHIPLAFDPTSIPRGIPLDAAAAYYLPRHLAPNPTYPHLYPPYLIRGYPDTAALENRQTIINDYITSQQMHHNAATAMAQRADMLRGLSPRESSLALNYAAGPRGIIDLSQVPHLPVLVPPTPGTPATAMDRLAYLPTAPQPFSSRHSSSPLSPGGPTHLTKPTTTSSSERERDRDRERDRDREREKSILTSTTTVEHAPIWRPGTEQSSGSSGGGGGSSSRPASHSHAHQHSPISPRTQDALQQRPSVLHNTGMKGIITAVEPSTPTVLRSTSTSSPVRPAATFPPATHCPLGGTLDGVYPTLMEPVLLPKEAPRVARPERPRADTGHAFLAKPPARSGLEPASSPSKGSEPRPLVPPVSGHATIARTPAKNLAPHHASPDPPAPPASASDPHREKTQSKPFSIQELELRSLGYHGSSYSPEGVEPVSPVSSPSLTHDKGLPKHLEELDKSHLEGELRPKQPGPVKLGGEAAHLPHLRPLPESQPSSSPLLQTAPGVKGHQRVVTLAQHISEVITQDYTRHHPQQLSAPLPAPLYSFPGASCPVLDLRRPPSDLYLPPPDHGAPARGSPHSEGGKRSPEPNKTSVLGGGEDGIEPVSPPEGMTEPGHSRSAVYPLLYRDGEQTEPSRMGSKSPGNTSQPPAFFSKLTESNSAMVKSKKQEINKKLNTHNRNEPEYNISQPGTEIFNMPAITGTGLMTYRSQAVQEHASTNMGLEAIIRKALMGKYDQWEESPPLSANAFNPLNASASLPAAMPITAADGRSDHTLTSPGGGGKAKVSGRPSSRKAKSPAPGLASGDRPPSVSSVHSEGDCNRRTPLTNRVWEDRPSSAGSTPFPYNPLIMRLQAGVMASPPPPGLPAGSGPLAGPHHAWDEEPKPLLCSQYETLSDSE
Sequence of Perilipin-1/ABHD5 (Q8WTS1 whole entry, the tested form may be a part): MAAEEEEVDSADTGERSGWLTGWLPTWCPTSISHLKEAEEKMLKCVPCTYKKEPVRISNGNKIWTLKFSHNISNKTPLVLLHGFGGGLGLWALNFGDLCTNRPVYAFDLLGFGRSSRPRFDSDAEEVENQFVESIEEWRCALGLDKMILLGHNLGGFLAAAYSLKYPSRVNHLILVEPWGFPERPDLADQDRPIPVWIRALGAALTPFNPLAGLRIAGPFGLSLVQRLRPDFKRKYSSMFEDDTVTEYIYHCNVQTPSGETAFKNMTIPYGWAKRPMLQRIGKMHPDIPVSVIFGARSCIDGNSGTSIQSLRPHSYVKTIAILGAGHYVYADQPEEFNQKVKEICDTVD
Sequence of Perilipin-1/ABHD5 (O60240 whole entry, the tested form may be a part): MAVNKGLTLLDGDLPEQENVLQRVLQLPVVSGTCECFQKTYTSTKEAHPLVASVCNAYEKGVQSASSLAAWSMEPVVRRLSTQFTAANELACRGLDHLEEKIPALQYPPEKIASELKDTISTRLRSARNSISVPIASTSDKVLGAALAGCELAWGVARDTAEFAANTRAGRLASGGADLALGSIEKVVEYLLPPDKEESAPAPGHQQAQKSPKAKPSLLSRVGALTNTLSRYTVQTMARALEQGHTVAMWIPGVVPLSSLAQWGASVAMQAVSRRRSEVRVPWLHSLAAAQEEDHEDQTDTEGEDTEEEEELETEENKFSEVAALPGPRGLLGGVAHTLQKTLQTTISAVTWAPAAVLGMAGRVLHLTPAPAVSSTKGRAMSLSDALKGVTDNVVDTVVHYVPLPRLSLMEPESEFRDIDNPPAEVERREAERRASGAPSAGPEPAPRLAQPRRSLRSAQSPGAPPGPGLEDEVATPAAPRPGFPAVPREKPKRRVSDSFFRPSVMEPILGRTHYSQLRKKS
Sequence of Sphingosine 1-phosphate receptor 1 (P21453 whole entry): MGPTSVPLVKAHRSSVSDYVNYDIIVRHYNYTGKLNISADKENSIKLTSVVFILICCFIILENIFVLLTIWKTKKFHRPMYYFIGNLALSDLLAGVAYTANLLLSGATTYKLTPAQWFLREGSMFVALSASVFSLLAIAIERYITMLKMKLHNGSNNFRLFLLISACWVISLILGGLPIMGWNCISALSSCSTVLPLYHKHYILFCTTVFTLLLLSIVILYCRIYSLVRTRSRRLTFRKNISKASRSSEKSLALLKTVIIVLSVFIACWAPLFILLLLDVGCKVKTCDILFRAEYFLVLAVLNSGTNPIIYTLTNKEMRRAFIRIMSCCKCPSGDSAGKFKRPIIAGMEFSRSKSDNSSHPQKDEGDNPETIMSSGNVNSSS
Sequence of Delta-type opioid receptor (P41143 whole entry): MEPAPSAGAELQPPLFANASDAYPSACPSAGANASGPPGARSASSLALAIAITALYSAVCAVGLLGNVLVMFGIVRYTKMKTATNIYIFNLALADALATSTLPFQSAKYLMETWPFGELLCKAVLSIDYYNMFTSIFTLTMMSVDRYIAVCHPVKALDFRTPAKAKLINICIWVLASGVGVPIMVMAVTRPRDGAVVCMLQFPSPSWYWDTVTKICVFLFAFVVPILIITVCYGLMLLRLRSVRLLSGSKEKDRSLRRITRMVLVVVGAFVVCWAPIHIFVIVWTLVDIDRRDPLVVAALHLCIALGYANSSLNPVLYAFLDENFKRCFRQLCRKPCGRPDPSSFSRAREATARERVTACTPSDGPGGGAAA
Sequence of Photoreceptor-specific nuclear receptor (Q9Y5X4 whole entry, the tested form may be a part): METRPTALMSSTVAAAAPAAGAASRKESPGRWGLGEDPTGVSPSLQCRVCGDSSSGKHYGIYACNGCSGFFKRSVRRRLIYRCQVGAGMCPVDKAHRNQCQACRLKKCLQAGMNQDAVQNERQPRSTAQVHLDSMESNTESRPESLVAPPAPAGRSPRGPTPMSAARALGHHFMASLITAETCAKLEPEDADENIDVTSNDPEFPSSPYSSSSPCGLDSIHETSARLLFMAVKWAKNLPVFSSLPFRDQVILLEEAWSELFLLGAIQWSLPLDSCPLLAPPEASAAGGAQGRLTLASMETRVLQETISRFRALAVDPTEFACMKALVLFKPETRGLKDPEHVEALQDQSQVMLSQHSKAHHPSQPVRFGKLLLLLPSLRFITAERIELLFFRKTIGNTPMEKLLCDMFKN

Consider `O=C1c2cc(F)ccc2-n2c1nc1ccccc1c2=O`, for which the EC50 in assay [1] was 8.84 µM (active); in assay [2], > 300 µM (not active); in assay [3] it was > 300 µM (not active); in assay [4], 10 µM (inconclusive).
Regarding `CCOC(=O)C1=C(c2ccc(OC)cc2)C(=O)c2ccccc2C1=O`, the IC50 in assay [5] is recorded as > 50 µM (not active).
Regarding `O=C1C=C(N(CCO)Cc2ccccc2)c2ccccc2C1=O`, in the assay on A-375, the AC50 is 37.8 µM (active). Moreover, in assay [6], the half-inhibitory concentration (IC50) is 3.71 µM (active).
Turning to `CCC(=O)OCCNc1cc(Sc2nccn2C)c2nonc2c1[N+](=O)[O-]`, the EC50 was > 31.5 µM (inactive) at Beta-galactosidase and > 32 µM (inactive) in assay [8]. The figures for the AC50 (in assay [7]; on Paired box protein Pax-8) were 4.16 µM (active) and 7.53 µM (active), respectively. Also, the IC50 on Beta Lactamase is 8.31 µM (active).
As to `CCCCn1c(NC(=O)c2ccccc2Cl)c(C#N)c2nc3ccccc3nc21`, the IC50 at SUMO-activating enzyme was 0.89 µM (active).
As for `O=C1C(=O)c2ccccc2-c2ccccc21` [9,10-PHENANTHRENEQUINONE], the 50% inhibitory concentration (IC50) in [9] is 6.44 µM (active); in assay [10], 5.02 µM (active); on Phospholipase A2, 42.8 µM (inactive); in [11] it was > 39.8 µM (not active); on Perilipin-1/ABHD5, 12.3 µM (inactive); in assay [13], 1.84 µM (active). Besides, the concentration at half-maximal activity (AC50) in assay [12] was 2.66 µM (active).

As a reminder, the EC50 is the concentration that produces a half-maximal response. What is called IC50 is the concentration needed to halve the response being measured. In general, AC50 refers to the midpoint of the concentration-response curve, whichever way the signal moves.
